Source: patent US20200255415A1, “TETRASUBSTITUTED ALKENE COMPOUNDS AND THEIR USE FOR THE TREATMENT OF BREAST CANCER” (Eisai R&D Management Co., Ltd., priority 2016, published 2020)

Molecular target: T1, human CYP3A4 (Homo sapiens, UniProt P08684)
T1 construct: human CYP3A4 using liver microsomes (0.1 mg/mL); from tissue; host or cells: liver microsomes
Test: Time-dependent inhibition assay (IC50 shift), liver microsomes
Assay type: in vitro ADME
Details: 30 min pre-incubation; for CYP3A4 TDI: IC50 shift, human liver microsomes, midazolam probe
Description: One of these approaches uses multiple test compound concentrations at a single incubation time, e.g. the “IC50 shift” approach. In an IC50 shift experiment, the IC50 is determined for a CYP marker activity before and after the test compound has been incubated with enzyme and the co-factor nicotinamide adenine dinucleotide phosphate (NADPH) for a set preincubation time (Grimm et al, 2009).
The IC50 shift approach was used to determine whether compounds are time-dependent inhibitors of human CYP3A4 using liver microsomes (0.1 mg/mL). A 30-minute pre-incubation time point was selected, where compounds (9 concentrations, 0 to 30 μmol/L) are incubated at 37° C. in presence and absence of 1 mmol/L NADPH. Following the pre-incubation period, 5 μmol/L midazolam (the probe substrate) was added and formation of hydroxymidazolam was measured by high-performance liquid chromatography-mass spectrometry (LC-MS/MS) analysis following a 5 minute incubation period. Any decrease in the formation of hydroxymidazolam, in peak area ratios to vehicle control, was used to calculate three IC50 values (0 min pre-incubation, 30 min pre-incubation with NADPH, and 30 min pre-incubation without NADPH). […] Assays were performed in duplicate, and mifepristone was used as positive control. In Table 3, “Yes” indicates a TDI shift greater than or equal to 3. “No” indicates a TDI shift greater than or equal to 1 and less than 3.
The IC50 shift approach was also used to determine whether Compound 69 of PCT International Application Publication No. WO/2016/196346 is a time-dependent inhibitor of human CYP3A4 using liver microsomes. Similar to the experimental design described above, a 30-minute pre-incubation time point was selected. Minor variations to the method described above were that Compound 69 of PCT International Application Publication No. WO/2016/196346 was tested at 8 concentrations (0 to 10 μmol/L). Following the pre-incubation period, 3 μmol/L midazolam was added and formation of hydroxymidazolam was measured following a 2 minute incubation period. Since under these experimental conditions, the formation of hydroxymidazolam followed first order kinetics (considered as a linear process), these changes in assay design are not expected to impact the IC50 determinations. In parallel, the IC50 shift assay was also performed with 15.6 μmol/L testosterone (0.05 mg/mL liver microsomes, 10 minute incubation) as second probe substrate. Assays for both probe substrates were performed in triplicate, and mifepristone was used as positive control.

T1 sequence (P08684 whole entry): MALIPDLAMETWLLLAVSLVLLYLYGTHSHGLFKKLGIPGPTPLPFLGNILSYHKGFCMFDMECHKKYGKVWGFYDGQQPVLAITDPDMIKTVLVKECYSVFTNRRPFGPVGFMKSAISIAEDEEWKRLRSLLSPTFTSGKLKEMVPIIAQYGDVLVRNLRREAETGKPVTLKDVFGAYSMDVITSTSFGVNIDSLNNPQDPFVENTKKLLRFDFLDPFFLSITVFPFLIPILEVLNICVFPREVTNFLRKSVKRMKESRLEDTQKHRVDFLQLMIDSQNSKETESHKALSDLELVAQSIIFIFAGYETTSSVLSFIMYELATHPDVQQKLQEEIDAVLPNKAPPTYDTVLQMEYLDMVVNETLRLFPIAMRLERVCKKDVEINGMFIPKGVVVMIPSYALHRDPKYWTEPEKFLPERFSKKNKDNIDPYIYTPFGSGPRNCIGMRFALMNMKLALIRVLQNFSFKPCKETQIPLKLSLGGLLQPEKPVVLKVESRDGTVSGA

| CYP3A4 TDI shift (8 concentrations 0 to 10 μmol/L, 3 μmol/L midazolam and 15.6 μmol/L testosterone probes) | SMILES | CYP3A4 TDI |
| --- | --- | --- |
|  | O=C(/C=C/CNCCOc1ccc(/C(=C(/CC(F)(F)F)c2ccccc2)c2ccc3[nH]nc(F)c3c2)cn1)N1CCC1 [Compound 60, (E)-1-(azetidin-1-yl)-4-((2-((5-((Z)-4,4,4-trifluoro-1-(3-fluoro-1H-indazol-5-yl)-2-phenylbut-1-en-1-yl)pyridin-2-yl)oxy)ethyl)amino)but-2-en-1-one] | No (“No” indicates a TDI shift greater than or equal to 1 and less than 3) |
|  | Cl.O=C(/C=C/CNCCOc1ccc(/C(=C(/CC(F)(F)F)c2ccccc2)c2ccc3[nH]nc(F)c3c2)cc1)N1CCOCC1 [Compound 17] | No (“No” indicates a TDI shift greater than or equal to 1 and less than 3) |
|  | Cl.NC(=O)/C=C/CNCCOc1ccc(/C(=C(/CC(F)(F)F)c2ccccc2)c2ccc3[nH]nc(F)c3c2)cn1 [Compound 56, (E)-4-((2-((5-((Z)-4,4,4-trifluoro-1-(3-fluoro-1H-indazol-5-yl)-2-phenylbut-1-en-1-yl)pyridin-2-yl)oxy)ethyl)amino)but-2-enamide] | No (“No” indicates a TDI shift greater than or equal to 1 and less than 3) |
|  | CNC(=O)/C=C/CNCCOc1ccc(/C(=C(/CC(F)(F)F)c2ccccc2)c2ccc3[nH]nc(F)c3c2)c(C)n1.Cl [Compound 44] | Yes (“Yes” indicates a TDI shift greater than or equal to 3) |
| greater than 3 | CN(C)C(=O)/C=C/CNCCOc1ccc(/C(=C(/CC(F)(F)F)c2ccccc2)c2ccc3[nH]nc(F)c3c2)cc1 [reference compound] |  |
|  | CC/C(=C(/c1ccc(OCCNC/C=C/C(=O)NC)cc1)c1ccc2[nH]nc(F)c2c1)c1ccccc1.Cl [Compound 26, (E)-4-((2-(4-((E)-1-(3-fluoro-1H-indazol-5-yl)-2-phenylbut-1-en-1-yl)phenoxy)ethyl)amino)-N-methylbut-2-enamide] | No (“No” indicates a TDI shift greater than or equal to 1 and less than 3) |
|  | CC/C(=C(/c1ccc(OCCNC/C=C/C(=O)N2CCCC2)nc1)c1ccc2[nH]nc(F)c2c1)c1ccccc1.Cl [Compound 30] | No (“No” indicates a TDI shift greater than or equal to 1 and less than 3) |
|  | CNC(=O)/C=C/CNCCOc1ccc(/C(=C(\c2ccccc2)C2CCC2)c2ccc3[nH]ncc3c2)cn1.Cl [Compound 33, (E)-4-((2-((5-((Z)-2-cyclobutyl-1-(1H-indazol-5-yl)-2-phenylvinyl)pyridin-2-yl)oxy)ethyl)amino)-N-methylbut-2-enamide] | Yes (“Yes” indicates a TDI shift greater than or equal to 3) |
|  | Cl.NC(=O)/C=C/CNCCOc1ccc(/C(=C(/CC(F)(F)F)c2ccccc2)c2ccc3[nH]nc(F)c3c2)cc1 [Compound 57, (E)-4-((2-(4-((E)-4,4,4-trifluoro-1-(3-fluoro-1H-indazol-5-yl)-2-phenylbut-1-en-1-yl)phenoxy)ethyl)amino)but-2-enamide] | No (“No” indicates a TDI shift greater than or equal to 1 and less than 3) |
|  | CNC(=O)/C=C/CNCCOc1ccc(/C(=C(/CC(F)(F)F)c2ccccc2)c2ccc3[nH]ncc3c2)cc1 [Compound 10, (E)-N-methyl-4-((2-(4-((E)-4,4,4-trifluoro-1-(1H-indazol-5-yl)-2-phenylbut-1-en-1-yl)phenoxy)ethyl)amino)but-2-enamide] | Yes (“Yes” indicates a TDI shift greater than or equal to 3) |
|  | O=C(/C=C/CNCCOc1ccc(/C(=C(/CC(F)(F)F)c2ccccc2)c2ccc3[nH]nc(F)c3c2)cn1)NCCO [Compound 7, (E)-N-(2-hydroxyethyl)-4-((2-((5-((Z)-4,4,4-trifluoro-1-(3-fluoro-1H-indazol-5-yl)-2-phenylbut-1-en-1-yl)pyridin-2-yl)oxy)ethyl)amino)but-2-enamide] | No (“No” indicates a TDI shift greater than or equal to 1 and less than 3) |
|  | O=C(/C=C/CNCCOc1ccc(/C(=C(/CC(F)(F)F)c2ccccc2)c2ccc3[nH]nc(F)c3c2)cn1)N1CCCCC1 [Compound 55] | Yes (“Yes” indicates a TDI shift greater than or equal to 3) |
|  | CNC(=O)/C=C/CNCCOc1ccc(/C(=C(/CC(F)(F)F)c2ccccc2)c2ccc3[nH]ncc3c2)cn1 [Compound 9, (E)-N-methyl-4-((2-((5-((Z)-4,4,4-trifluoro-1-(1H-indazol-5-yl)-2-phenylbut-1-en-1-yl)pyridin-2-yl)oxy)ethyl)amino)but-2-enamide] | Yes (“Yes” indicates a TDI shift greater than or equal to 3) |
|  | CC/C(=C(/c1ccc(OCCNC/C=C/C(=O)N2CCCC2)cc1)c1ccc2[nH]nc(F)c2c1)c1ccccc1.Cl [Compound 29, (E)-4-((2-(4-((E)-1-(3-fluoro-1H-indazol-5-yl)-2-phenylbut-1-en-1-yl)phenoxy)ethyl)amino)-1-(pyrrolidin-1-yl)but-2-en-1-one] | No (“No” indicates a TDI shift greater than or equal to 1 and less than 3) |
|  | Cl.O=C(/C=C/CNCCOc1ccc(/C(=C(/CC(F)(F)F)c2ccccc2)c2ccc3[nH]nc(F)c3c2)cc1)N1CCCC1 [Compound 13, (E)-1-(pyrrolidin-1-yl)-4-((2-(4-((E)-4,4,4-trifluoro-1-(3-fluoro-1H-indazol-5-yl)-2-phenylbut-1-en-1-yl)phenoxy)ethyl)amino)but-2-en-1-one] | No (“No” indicates a TDI shift greater than or equal to 1 and less than 3) |
|  | CC/C(=C(/c1ccc(OCCNC/C=C/C(=O)NC)nc1)c1ccc2[nH]nc(F)c2c1)c1ccccc1.Cl [Compound 27, (E)-4-((2-((5-((Z)-1-(3-fluoro-1H-indazol-5-yl)-2-phenylbut-1-en-1-yl)pyridin-2-yl)oxy)ethyl)amino)-N-methylbut-2-enamide] | Yes (“Yes” indicates a TDI shift greater than or equal to 3) |
|  | Cl.[2H]C([2H])([2H])N(C(=O)/C=C/CNCCOc1ccc(/C(=C(/CC(F)(F)F)c2ccccc2)c2ccc3[nH]ncc3c2)cc1)C([2H])([2H])[2H] [Compound 23] | Yes (“Yes” indicates a TDI shift greater than or equal to 3) |
|  | CNC(=O)/C=C/CNCCOc1ccc(/C(=C(\c2ccccc2)C2CCC2)c2ccc3[nH]nc(F)c3c2)cn1.Cl [Compound 32] | Yes (“Yes” indicates a TDI shift greater than or equal to 3) |
|  | CNC(=O)CCCNCCOc1ccc(/C(=C(/CC(F)(F)F)c2ccccc2)c2ccc3[nH]ncc3c2)cc1.Cl [Compound 38, (E)-N-methyl-4-((2-(4-(4,4,4-trifluoro-1-(1H-indazol-5-yl)-2-phenylbut-1-en-1-yl)phenoxy)ethyl)amino)butanamide] | Yes (“Yes” indicates a TDI shift greater than or equal to 3) |
|  | CNC(=O)/C=C/CNCCCOc1ccc(/C(=C(/CC(F)(F)F)c2ccccc2)c2ccc3[nH]nc(F)c3c2)cn1.Cl [Compound 61] | No (“No” indicates a TDI shift greater than or equal to 1 and less than 3) |
|  | CNC(=O)CCCNCCOc1ccc(/C(=C(/CC(F)(F)F)c2ccccc2)c2ccc3[nH]ncc3c2)cn1.Cl [Compound 40, (Z)—N-methyl-4-((2-((5-(4,4,4-trifluoro-1-(1H-indazol-5-yl)-2-phenylbut-1-en-1-yl)pyridin-2-yl)oxy)ethyl)amino)butanamide] | Yes (“Yes” indicates a TDI shift greater than or equal to 3) |
|  | CNC(=O)/C=C/CNCCOc1ccc(/C(=C(\c2ccccc2)C2CCC2)c2ccc3[nH]nc(F)c3c2)cc1.Cl [Compound 31, (E)-4-((2-(4-((E)-2-cyclobutyl-1-(3-fluoro-1H-indazol-5-yl)-2-phenylvinyl)phenoxy)ethyl)amino)-N-methylbut-2-enamide] | Yes (“Yes” indicates a TDI shift greater than or equal to 3) |
|  | O=C(/C=C/CNCCOc1ccc(/C(=C(\c2ccccc2)C2CCC2)c2ccc3[nH]nc(F)c3c2)cc1)N1CCCC1 [Compound 34] | Yes (“Yes” indicates a TDI shift greater than or equal to 3) |
|  | CNC(=O)CCCNCCOc1ccc(/C(=C(/CC(F)(F)F)c2ccccc2)c2ccc3[nH]nc(F)c3c2)cc1.Cl [Compound 39, (E)-N-methyl-4-((2-(4-(4,4,4-trifluoro-1-(3-fluoro-1H-Indazol-5-yl)-2-phenylbut-1-en-1-yl)phenoxy)ethyl)amino)butanamide] | No (“No” indicates a TDI shift greater than or equal to 1 and less than 3) |
|  | Cl.O=C(/C=C/CNCCOc1ccc(/C(=C(/CC(F)(F)F)c2ccccc2)c2ccc3[nH]ncc3c2)cn1)N1CCCC1 [Compound 16, (E)-1-(pyrrolidin-1-yl)-4-((2-((5-((Z)-4,4,4-trifluoro-1-(1H-indazol-5-yl)-2-phenylbut-1-en-1-yl)pyridin-2-yl)oxy)ethyl)amino)but-2-en-1-one] | Yes (“Yes” indicates a TDI shift greater than or equal to 3) |
